Source: PubChem BioAssay AID1671209

Target: Dual specificity tyrosine-phosphorylation-regulated kinase 4 (Homo sapiens) (UniProt Q9NR20)
Assay: DYRK4 kinase inhibitors, dose response, biochemical, Z'-LYTE, FRET, protease-coupled, direct format (AID 1671209)
Conditions: Z'-LYTE FRET kinase activity, recombinant DYRK4

Sequence of Dual specificity tyrosine-phosphorylation-regulated kinase 4 (Homo sapiens) (Q9NR20 whole entry, looked up): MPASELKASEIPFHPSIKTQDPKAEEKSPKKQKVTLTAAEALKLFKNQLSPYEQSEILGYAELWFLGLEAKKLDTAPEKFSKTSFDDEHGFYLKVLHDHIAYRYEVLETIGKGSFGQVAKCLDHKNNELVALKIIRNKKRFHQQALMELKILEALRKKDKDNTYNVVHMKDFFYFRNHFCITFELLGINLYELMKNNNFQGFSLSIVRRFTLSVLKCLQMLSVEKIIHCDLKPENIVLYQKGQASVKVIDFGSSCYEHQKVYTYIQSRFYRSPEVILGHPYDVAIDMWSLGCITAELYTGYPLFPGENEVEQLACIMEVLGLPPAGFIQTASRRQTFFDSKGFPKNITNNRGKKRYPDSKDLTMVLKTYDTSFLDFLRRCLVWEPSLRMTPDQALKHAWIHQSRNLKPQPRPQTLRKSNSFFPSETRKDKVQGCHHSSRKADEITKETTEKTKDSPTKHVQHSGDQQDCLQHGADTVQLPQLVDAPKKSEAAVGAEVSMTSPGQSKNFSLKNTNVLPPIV

IC50: 12.9 µM
SMILES: Brc1c(Br)c(Br)c2n[nH]nc2c1Br
